Measured values reported in BindingDB's records for doi:10.1111/cbdd.12131 (University of Pisa, 2013).

Assays:
[1] = target: Adenosine receptor A1 (rat); test: For A1 adenosine receptors, […] of protein were incubated for 60 min at 25°C with [3H]DPCPX 0.5 nM (Kd = 0.4 nM) and increasing concentrations of the compounds, in a final volume of 0.4 mL of Tris-HCl buffer. Binding reaction was terminated by dilution with ice-cold 50 mM Tris-HCl buffer, pH 7.4.For A2A and A3 adenosine receptors, […]
[2] = target: Adenosine receptor A2a; test: as above
[3] = target: T1, Adenosine receptor A1 (Rattus norvegicus, UniProt P25099); test: Radiological Binding Assay; settings: pH 7.4
T1 sequence (P25099 whole entry): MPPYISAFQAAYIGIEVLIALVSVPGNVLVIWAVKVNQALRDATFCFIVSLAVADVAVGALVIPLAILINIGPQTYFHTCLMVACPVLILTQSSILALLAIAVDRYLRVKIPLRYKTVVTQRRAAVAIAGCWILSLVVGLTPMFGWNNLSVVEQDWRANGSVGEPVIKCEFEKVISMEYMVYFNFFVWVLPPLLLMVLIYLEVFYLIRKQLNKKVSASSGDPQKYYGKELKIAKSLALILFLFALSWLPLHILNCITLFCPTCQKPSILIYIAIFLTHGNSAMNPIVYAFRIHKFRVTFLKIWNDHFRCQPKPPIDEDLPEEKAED
Procedure: For A1 adenosine receptors, […] of protein were incubated for 60 min at 25°C with [3H]DPCPX 0.5 nM (Kd = 0.4 nM) and increasing concentrations of the compounds, in a final volume of 0.4 mL of Tris-HCl buffer. Binding reaction was terminated by dilution with ice-cold 50 mM Tris-HCl buffer, pH 7.4.For A2A and A3 adenosine receptors, […] of protein were incubated with [3H]ZM241385 6 nM (Kd = 4 nM) in the experiments involving A2A and with [3H]NECA 15 nM (Kd = 150 nM) involving A3 and the compounds to be assayed, at fixed concentration (10 µM) or at increasing concentrations of the compounds in duplicate, in a final volume of 0.4 mL of Tris-HCl buffer for 120 min at 25°C. Non-specific binding was measured in the presence of 100 µM NECA in the case of A2A and 100 µM R-PIA in the case of A3 binding assay. Bound radioactivity of all samples was measured in a liquid scintillation counter (1600 TR Packard) after the addition of 4 mL of scintillation liquid (Emulsifier-Safe; Hewlett-Packa

Ki [1] [nM]	Ki [2] [nM]	Ki [3] [nM]	SMILES
1.4	190		O=C(Nc1nc(-c2ccccc2)nc2c1nnn2Cc1ccccc1F)C1CCCC1 [N-[9-(ortho-fluorobenzyl)-2-phenyl-9H-8-azapurin-6-yl]-amides (4)]
92			O=C(Nc1nc(-c2ccccc2)nc2c1nnn2Cc1ccccc1F)c1ccc(I)cc1 [N-[9-(ortho-fluorobenzyl)-2-phenyl-9H-8-azapurin-6-yl]-amides (13)]
5.5	224		O=C(Nc1nc(-c2ccccc2)nc2c1nnn2Cc1ccccc1F)c1ccco1 [N-[9-(ortho-fluorobenzyl)-2-phenyl-9H-8-azapurin-6-yl]-amides (6)]
18			Nc1ccc(C(=O)Nc2nc(-c3ccccc3)nc3c2nnn3Cc2ccccc2F)cc1 [N-[9-ortho-fluorobenzyl)-2-phenyl-9H-8-azapurin-6-yl]-amides (15)]
14			O=C(Nc1nc(-c2ccccc2)nc2c1nnn2Cc1ccccc1F)c1ccc([N+](=O)[O-])cc1 [N-[9-(ortho-fluorobenzyl)-2-phenyl-9H-8-azapurin-6-yl]-amides (12)]
28			O=C(Nc1nc(-c2ccccc2)nc2c1nnn2Cc1ccccc1F)c1cccc([N+](=O)[O-])c1 [N-[9-(ortho-fluorobenzyl)-2-phenyl-9H-8-azapurin-6-yl]-amides (11)]
43			O=C(Nc1nc(-c2ccccc2)nc2c1nnn2Cc1ccccc1F)c1cccc(Cl)c1 [N-[9-(ortho-fluorobenzyl)-2-phenyl-9H-8-azapurin-6-yl]-amides (8)]
2.1	413		O=C(Nc1nc(-c2ccccc2)nc2c1nnn2Cc1ccccc1F)C1CCCCC1 [N-[9-(ortho-fluorobenzyl)-2-phenyl-9H-8-azapurin-6-yl]-amides (5)]
0.71	72		O=C(Nc1nc(-c2ccccc2)nc2c1nnn2Cc1ccccc1F)C1CCC1 [N-[9-(ortho-fluorobenzyl)-2-phenyl-9H-8-azapurin-6-yl]-amides (3)]
9.2	292		O=C(Nc1nc(-c2ccccc2)nc2c1nnn2Cc1ccccc1F)C1CC1 [N-[9-(ortho-fluorobenzyl)-2-phenyl-9H-8-azapurin-6-yl]-amides (2)]
5.5			O=C(Nc1nc(-c2ccccc2)nc2c1nnn2Cc1ccccc1F)c1cccc(F)c1 [N-[9-(ortho-fluorobenzyl)-2-phenyl-9H-8-azapurin-6-yl]-amides (9)]
3.8		3.8	Nc1nc(-c2ccccc2)nc2c1nnn2Cc1ccccc1F [9-(ortho-fluorobenzyl)-2-phenyl-azaadenine (1bis)]
2.3	91		O=C(Nc1nc(-c2ccccc2)nc2c1nnn2Cc1ccccc1F)c1ccoc1 [N-[9-(ortho-fluorobenzyl)-2-phenyl-9H-8-azapurin-6-yl]-amides (7)]
